Here are results for 36 molecules from patent publication US20240383908A1, “SYNTHESIS AND APPLICATION OF PHOSPHATASE DEGRADER” (HINOVA PHARMACEUTICALS INC., priority 2021, published 2024).

This experiment concerns the target T1, SHP2 protein (Homo sapiens, UniProt Q06124).
T1 sequence (Q06124 1-593): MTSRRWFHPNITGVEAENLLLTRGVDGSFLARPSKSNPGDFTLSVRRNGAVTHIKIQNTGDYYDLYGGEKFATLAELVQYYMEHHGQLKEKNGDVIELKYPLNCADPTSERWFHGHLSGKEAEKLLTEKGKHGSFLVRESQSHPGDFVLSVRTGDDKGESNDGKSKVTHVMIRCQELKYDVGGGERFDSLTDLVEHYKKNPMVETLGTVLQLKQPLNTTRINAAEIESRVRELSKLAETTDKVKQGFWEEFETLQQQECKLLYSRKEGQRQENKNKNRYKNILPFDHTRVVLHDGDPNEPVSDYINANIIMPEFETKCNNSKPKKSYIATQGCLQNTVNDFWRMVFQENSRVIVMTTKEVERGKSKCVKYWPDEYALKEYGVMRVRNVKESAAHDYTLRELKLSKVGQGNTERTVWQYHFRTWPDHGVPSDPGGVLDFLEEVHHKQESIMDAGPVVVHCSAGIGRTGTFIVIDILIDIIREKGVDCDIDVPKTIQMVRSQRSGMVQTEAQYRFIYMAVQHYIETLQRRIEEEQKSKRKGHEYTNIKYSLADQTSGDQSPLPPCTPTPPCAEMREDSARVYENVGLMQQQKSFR
Kind of experiment: Degradation activity on SHP2 protein in MV-411 cells (Western blot, DC50). The class given is cell-based. More on the design: endogenous in cells. The settings on record: MV411 cells, 24 hours, read-out: Degradation activity for differenct cell lines MV411 (DC50). The method, boiled down:
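Western blot of SHP2 (GAPDH loading control, 30 μg protein/lane) in lysates of MV-411 cells exposed 24 h to final compound concentrations of 100, 10, 3, 1, 0.3 and 0.1 nM (0.1% DMSO). Degradation relative to DMSO set at 100%; DC50 derived by curve fitting.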
On the technique in general: Immunoblotting shows a protein as a band on a membrane.

A value given as a limit tells only on which side of the number the result lay.

`CC1(N)CCN(c2cnc(Sc3cccc(NC(=O)CCCCCCCN4CC5CN(Cc6ccc(COc7cccc8c7CN(C7CCC(=O)NC7=O)C8=O)cc6)CC5C4)c3)cn2)CC1` (stereo not drawn) [Compound 95]: the DC50 was < 100 nM.
Then `Cc1ncsc1-c1ccc([C@H](C)NC(=O)[C@@H]2C[C@@H](O)CN2C(=O)[C@@H](NC(=O)c2ccc(N3CC4CCC(C3)N4CCCCCCCCC(=O)Nc3cccc(Sc4cnc(N5CCC(C)(N)CC5)cn4)c3)nn2)C(C)(C)C)cc1` [Compound 118], with 100 to 1000 nM.
Then `Cc1ncsc1-c1ccc([C@H](C)NC(=O)[C@@H]2C[C@@H](O)CN2C(=O)[C@@H](NC(=O)CCCCCCCCCCCC(=O)Nc2cccc(Sc3cnc(N4CCC(C)(N)CC4)cn3)c2)C(C)(C)C)cc1` [Compound 58], with 100 to 1000 nM; and `CC1(N)CCN(c2cnc(Sc3cccc(NC(=O)CCCCCCN4CC5(CCN(c6ccc(C(NCc7ccc8c(c7)CN(C7CCC(=O)NC7=O)C8=O)C(F)(F)F)nn6)C5)C4)c3)cn2)CC1` (stereo not drawn) [Compound 193, N-(3-((5-(4-amino-4-methylpyridin-1-yl)pyrazin-2-yl)thio)phenyl)-7-(6-(6-(1-(((2-(2,6-dioxopiperidin-3-yl)-1-oxoisoindol-5-yl)methyl)amino)-2,2,2-trifluoroethyl)pyridazin-3-yl)-2,6-diazaspiro[3.4]octan-2-yl)heptanamide], with > 1000 nM.
Next, `CC1(N)CCN(c2cnc(Sc3cccc(NC(=O)CCCCCCCCCCCCCCC(=O)NCc4ccc5c(c4)CN(C4CCC(=O)NC4=O)C5=O)c3)cn2)CC1` (stereo not drawn) [Compound 42]: > 1000 nM; `CC1(N)CCN(c2cnc(Sc3cccc(NC(=O)CCCCC(=O)Nc4cccc5c4CN(C4CCC(=O)NC4=O)C5=O)c3)cn2)CC1` (stereo not drawn) [Compound 1]: > 1000 nM.
For the molecule `Cc1nc2cccc(NC(=O)CCCCCCCCN3CCN(C(=O)CCC(=O)Nc4cccc(Sc5cnc(N6CCC(C)(N)CC6)cn5)c4)CC3)c2c(=O)n1C1CCC(=O)NC1=O` (stereo not drawn) [Compound 35], the DC50 is > 1000 nM.
Next, `CC1(N)CCN(c2cnc(Sc3cccc(NC(=O)CCCCCC(=O)N4CC5(CCN(C(=O)[C@@H]6C[C@H]6C(=O)NCc6ccc7c(c6)CN(C6CCC(=O)NC6=O)C7=O)C5)C4)c3)cn2)CC1` (stereo partly drawn) [Compound 131]: 100 to 1000 nM.
Then `CC1(N)CCN(c2cnc(Sc3cccc(NC(=O)CCCCCCCN4CC5(CCN(c6ccc(C(=O)NCc7ccc8c(c7)CN(C7CCC(=O)NC7=O)C8=O)nn6)C5)C4)c3)cn2)CC1` (stereo not drawn) [Compound 106], with < 100 nM.
`Cc1ncsc1-c1ccc([C@H](C)NC(=O)[C@@H]2C[C@@H](O)CN2C(=O)[C@@H](NC(=O)CCCCCCCCN2CCN(C(=O)[C@H]3CCC[C@@H]3C(=O)Nc3cccc(Sc4cnc(N5CCC(C)(N)CC5)cn4)c3)CC2)C(C)(C)C)cc1` [Compound 28]: the DC50 is < 100 nM.
With `CC1(N)CCN(c2cnc(Sc3cccc(NC(=O)CC(=O)Nc4ccc5c(c4)C(=O)N(C4CCC(=O)NC4=O)C5)c3)cn2)CC1` (stereo not drawn) [Compound 9], the DC50 is > 1000 nM.
Then `CC1(N)CCN(c2cnc(Sc3cccc(NC(=O)CCCCCCCN4CC5(CCN(Cc6ccc(COc7cccc8c7CN(C7CCC(=O)NC7=O)C8=O)cc6)C5)C4)c3)cn2)CC1` (stereo not drawn) [Compound 68], with < 100 nM; and `Cc1ncsc1-c1ccc([C@H](C)NC(=O)[C@@H]2C[C@@H](O)CN2C(=O)[C@@H](NC(=O)CCCCCCCCN2CCN(C(=O)C3CC3C(=O)Nc3cccc(Sc4cnc(N5CCC(C)(N)CC5)cn4)c3)CC2)C(C)(C)C)cc1` (stereo partly drawn) [Compound 77], with < 100 nM.
For the molecule `CC1(N)CCN(c2cnc(Sc3cccc(NC(=O)CCCCCCCOC4CCN(c5ccc(C(=O)NCc6ccc7c(c6)CN(C6CCC(=O)NC6=O)C7=O)nn5)CC4(F)F)c3)cn2)CC1` (stereo not drawn) [Compound 153], the 50% degradation concentration (DC50) is < 100 nM.
Next, `CN(Cc1ccc2c(c1)CN(C1CCC(=O)NC1=O)C2=O)C(=O)c1ccc(N2CCC3(CN(CCCCCCC(=O)Nc4cccc(Sc5cnc(N6CCC(C)(N)CC6)cn5)c4)C3)C2)nn1` (stereo not drawn) [Compound 152]: < 100 nM.
Then `CC1(N)CCN(c2cnc(Sc3cccc(NC(=O)COCCOCCOCCOCC(=O)NCc4ccc5c(c4)CN(C4CCC(=O)NC4=O)C5=O)c3)cn2)CC1` (stereo not drawn) [Compound 3], with 100 to 1000 nM; and `CN(Cc1ccc2c(c1)CN(C1CCC(=O)NC1=O)C2=O)C(=O)c1ccc(N2CCC3(CN(CCCCCC(=O)Nc4cccc(Sc5cnc(N6CCC(C)(N)CC6)cn5)c4)C3)C2)nn1` (stereo not drawn) [Compound 165], with < 100 nM.
Next, `CC1(N)CCN(c2cnc(Sc3cccc(NC(=O)CCCCCCCN4CC5(CC(n6cc(C#Cc7ccc8c(c7)CN(C7CCC(=O)NC7=O)C8=O)cn6)C5)C4)c3)cn2)CC1` (stereo not drawn) [Compound 172]: < 100 nM; `CC1(N)CCN(c2cnc(Sc3cccc(NC(=O)CCC(=O)NCCOCCOCC(=O)Nc4ccc5c(c4)CN(C4CCC(=O)NC4=O)C5=O)c3)cn2)CC1` (stereo not drawn) [Compound 30]: > 1000 nM; `CC1(N)CCN(c2cnc(Sc3cccc(NC(=O)CCCCCCCN4CC5(CCN(c6ncc(C(=O)NCc7ccc8c(c7)CN(C7CCC(=O)NC7=O)C8=O)cn6)C5)C4)c3)cn2)CC1` (stereo not drawn) [Compound 70]: < 100 nM.
Regarding `Cc1ncsc1-c1ccc([C@H](C)NC(=O)[C@@H]2C[C@@H](O)CN2C(=O)[C@@H](NC(=O)c2ccc(N3CC4CN(CCCCCCCC(=O)Nc5cccc(Sc6cnc(N7CCC(C)(N)CC7)cn6)c5)CC4C3)nn2)C(C)(C)C)cc1` (stereo partly drawn) [Compound 99], the DC50 was < 100 nM.
Then `CCC1(N)CCN(c2cnc(Sc3cccc(NC(=O)CCCCCCN4CC5(CCN(c6ccc(C(=O)N(C)Cc7ccc8c(c7)CN(C7CCC(=O)NC7=O)C8=O)nn6)C5)C4)c3)cn2)CC1` (stereo not drawn) [Compound 162], with < 100 nM; and `Cc1ncsc1-c1ccc([C@H](C)NC(=O)[C@@H]2C[C@@H](O)CN2C(=O)[C@@H](NC(=O)c2cnc(N3CCN(CCCCCCCC(=O)Nc4cccc(Sc5cnc(N6CCC(C)(N)CC6)cn5)c4)CC3)nc2)C(C)(C)C)cc1` [Compound 73], with < 100 nM; and `Cc1ncsc1-c1ccc([C@H](C)NC(=O)[C@@H]2C[C@@H](O)CN2C(=O)[C@@H](NC(=O)CCCCCCCCN2CCN(C(=O)/C=C/C(=O)Nc3cccc(Sc4cnc(N5CCC(C)(N)CC5)cn4)c3)CC2)C(C)(C)C)cc1` [Compound 54], with < 100 nM.
Consider `CC1(N)CCN(c2cnc(Sc3cccc(NC(=O)CCCCCCCCC(=O)NCc4ccc5c(c4)CN(C4CCC(=O)NC4=O)C5=O)c3)cn2)CC1` (stereo not drawn) [Compound 53], for which the DC50 was > 1000 nM.
In the case of `CC1(CN)CCN(c2cnc(Sc3cccc(NC(=O)CCC(=O)N4CCN(CCCCCCCCC(=O)Nc5ccc6c(c5)CN(C5CCC(=O)NC5=O)C6=O)CC4)c3Cl)cn2)CC1` (stereo not drawn) [Compound 14], the DC50 was < 100 nM.
Then `Cc1ncsc1-c1ccc([C@H](C)NC(=O)[C@@H]2C[C@@H](O)CN2C(=O)[C@@H](NC(=O)[C@@H]2C[C@H]2C(=O)N2CCC3(CN(C(=O)CCCCCC(=O)Nc4cccc(Sc5cnc(N6CCC(C)(N)CC6)cn5)c4)C3)C2)C(C)(C)C)cc1` [Compound 130], with < 100 nM; and `CC1(N)CCN(c2cnc(Sc3cccc(NC(=O)CCCCCCN4CC5(CCN(C(=O)[C@@H]6C[C@H]6C(=O)NCc6ccc7c(c6)CN(C6CCC(=O)NC6=O)C7=O)C5)C4)c3)cn2)CC1` (stereo partly drawn) [Compound 127], with 100 to 1000 nM; and `C[C@@H]1OCC2(CCN(c3cnc(Sc4cccc(NC(=O)CCN5CC6(CCN(c7ccc(C(=O)NCc8ccc9c(c8)CN(C8CCC(=O)NC8=O)C9=O)nn7)C6)C5)c4)cn3)CC2)[C@@H]1N` (stereo partly drawn) [Compound 108], with < 100 nM.
Then `Cc1ncsc1-c1ccc([C@H](C)NC(=O)[C@@H]2C[C@@H](O)CN2C(=O)[C@@H](NC(=O)CCCCCCCCCC(=O)Nc2cccc(Sc3cnc(N4CCC(C)(N)CC4)cn3)c2)C(C)(C)C)cc1` [Compound 56], with > 1000 nM; and `CC1(N)CCN(c2cnc(Sc3cccc(NC(=O)CCCCCCCCCCCNc4ccc(C(=O)NCc5ccc6c(c5)CN(C5CCC(=O)NC5=O)C6=O)nn4)c3)cn2)CC1` (stereo not drawn) [Compound 195], with 100 to 1000 nM; and `CC1(N)CCN(c2cnc(Sc3cccc(NC(=O)CCCCCCCN4CC5(C4)CN(C(=O)/C=C/C(=O)NCc4ccc6c(c4)CN(C4CCC(=O)NC4=O)C6=O)C5)c3)cn2)CC1` (stereo not drawn) [Compound 114], with > 1000 nM.
Then `Cc1ncsc1-c1ccc([C@H](C)NC(=O)[C@@H]2C[C@@H](O)CN2C(=O)[C@@H](NC(=O)CCCCCCCCCCN2CC(C(=O)Nc3cccc(Sc4cnc(N5CCC(C)(N)CC5)cn4)c3)C2)C(C)(C)C)cc1` [Compound 44], with 100 to 1000 nM.
Turning to `Cc1ncsc1-c1ccc([C@H](C)NC(=O)[C@@H]2C[C@@H](O)CN2C(=O)[C@@H](NC(=O)c2ccc(N3CCC4(CN(CCCCCOCC(=O)Nc5ccc(Sc6cnc(N7CCC(N)(CF)CC7)cn6)cc5)C4)C3)nn2)C(C)(C)C)cc1` [Compound 122], the DC50 is < 100 nM.
Next, `CC1(N)CCN(c2cnc(Sc3cccc(NC(=O)CCC(=O)N4CC5(CN(CCCCCCCC(=O)NCc6ccc7c(c6)CN(C6CCC(=O)NC6=O)C7=O)C5)C4)c3)cn2)CC1` (stereo not drawn) [Compound 31]: > 1000 nM; `Cc1ncsc1-c1ccc([C@H](C)NC(=O)[C@@H]2C[C@@H](O)CN2C(=O)[C@@H](NC(=O)CCCCCCCCCCC(=O)Nc2cccc(Sc3cnc(N4CCC(C)(N)CC4)cn3)c2)C(C)(C)C)cc1` [Compound 49]: < 100 nM.

The term DC50 denotes the concentration giving 50% degradation.
